Experimental data published in the CheMixHub ionic liquid set.

Test: xn = mol fraction of the nth substance listed

CCCC[n+]1ccccc1.[Cl-] + CC[n+]1ccccc1.[Br-]
101 kPa
Conditions	viscosity [mPa·s]
388.1 K, x2 = 0.484	30
388.1 K, x2 = 0.694	23.1
393.1 K, x2 = 0.64	21.6
393.1 K, x2 = 0.797	18.11
403.1 K, x2 = 0.408	21.2
403.1 K, x2 = 0.604	17.39
408.1 K, x2 = 0.64	14.86
408.1 K, x2 = 0.797	12.97
413.1 K, x2 = 0.193	19.5
413.1 K, x2 = 0.64	13.22
413.1 K, x2 = 0.694	12.73
413.1 K, x2 = 0.797	11.67
418.1 K, x2 = 0.104	18.3
418.1 K, x2 = 0.64	11.81
418.1 K, x2 = 0.694	11.42
423.1 K, x2 = 0.313	13.73
423.1 K, x2 = 0.797	9.52
423.1 K, x2 = 0.894	8.8
428.1 K, x2 = 0.313	12.22
428.1 K, x2 = 0.604	9.82
428.1 K, x2 = 0.694	9.28
433.1 K, x2 = 0.484	9.72
433.1 K, x2 = 0.64	8.61
438.1 K, x2 = 0.604	8.04
438.1 K, x2 = 0.894	6.68
443.1 K, x2 = 0.64	7.11
443.1 K, x2 = 0.797	6.56

CN1CCCC1=O + CC[n+]1ccn(C)c1.COS(=O)(=O)[O-]
Conditions	viscosity [mPa·s]
313.15 K, 101 kPa, x1 = 1	1.31

CC#N + CC[n+]1ccn(C)c1.F[B-](F)(F)F
viscosity [mPa·s]
Conditions	303.15 K	313.15 K	323.15 K	333.15 K
100 kPa, x1 = 1	0.354	–	–	–
101 kPa, x2 = 0	0.326	0.297	0.272	0.249

CC(=O)c1ccccc1 + CC[n+]1ccn(C)c1.F[B-](F)(F)F
100 kPa
Conditions	viscosity [mPa·s]
293.15 K, x1 = 0.2999	19.7
293.15 K, x1 = 0.4003	16
303.15 K, x1 = 0.094	16.9
303.15 K, x1 = 0.4989	8.9
313.15 K, x1 = 0.8918	2.09
313.15 K, x1 = 0.9498	1.68
323.15 K, x1 = 0.094	9.4
323.15 K, x1 = 0.4003	6.3
323.15 K, x1 = 0.4989	4.73
333.15 K, x1 = 0.0416	9.1
333.15 K, x1 = 0.094	7.5
333.15 K, x1 = 0.4003	5
333.15 K, x1 = 0.8918	1.52
333.15 K, x1 = 0.9498	1.23
333.15 K, x1 = 1	1.09

CN(C)C=O + CC[n+]1ccn(C)c1.F[B-](F)(F)F
101 kPa, x1 = 1
Conditions	viscosity [mPa·s]
313.15 K	0.667
333.15 K	0.541

CCCCn1cc[n+](CCOCCOCCOCCOCC[n+]2ccn(CCCC)c2)c1.O=S(=O)([N-]S(=O)(=O)C(F)(F)F)C(F)(F)F.O=S(=O)([N-]S(=O)(=O)C(F)(F)F)C(F)(F)F + CC[n+]1ccn(C)c1.N#C[N-]C#N + O=S(=O)([N-]S(=O)(=O)C(F)(F)F)C(F)(F)F.[Li+]
100 kPa, x1 = 0.1333, x2 = 0.7621
Conditions	electrical conductivity [S/m]
298 K	0.835
303 K	0.94
313 K	1.17
323 K	1.52
333 K	1.8
343 K	2.06

CCCCn1cc[n+](CCOCC[n+]2ccn(CCCC)c2)c1.O=S(=O)([N-]S(=O)(=O)C(F)(F)F)C(F)(F)F.O=S(=O)([N-]S(=O)(=O)C(F)(F)F)C(F)(F)F + CC[n+]1ccn(C)c1.N#C[N-]C#N + O=S(=O)([N-]S(=O)(=O)C(F)(F)F)C(F)(F)F.[Li+]
100 kPa, x1 = 0.1503, x2 = 0.7472
Conditions	electrical conductivity [S/m]
298 K	0.512
303 K	0.654
313 K	0.829
323 K	1.11
333 K	1.45
343 K	1.84

C[N+]1(CCOCCOCCOCCOCC[N+]2(C)CCCC2)CCCC1.O=S(=O)([N-]S(=O)(=O)C(F)(F)F)C(F)(F)F.O=S(=O)([N-]S(=O)(=O)C(F)(F)F)C(F)(F)F + CC[n+]1ccn(C)c1.N#C[N-]C#N + O=S(=O)([N-]S(=O)(=O)C(F)(F)F)C(F)(F)F.[Li+]
100 kPa, x1 = 0.1429, x2 = 0.7537
Conditions	electrical conductivity [S/m]
298 K	0.47
303 K	0.56
313 K	0.77
323 K	1.08
333 K	1.34
343 K	1.63

CCOC(C)=O + CC[n+]1ccn(C)c1.O=S(=O)([N-]S(=O)(=O)C(F)(F)F)C(F)(F)F
Conditions	viscosity [mPa·s]
303.15 K, 100 kPa, x1 = 1	0.39

CN(C)C=O + CC[n+]1ccn(C)c1.O=S(=O)([O-])C(F)(F)F
Conditions	viscosity [mPa·s]
298.15 K, 100 kPa, x1 = 1	0.81

CN(C)C=O + CC[n+]1ccn(C)c1.[Cl-]
Conditions	viscosity [mPa·s]
288.15 K, 101 kPa, x1 = 1	0.94

CC#N + CC[n+]1ccn(C)c1C.F[B-](F)(F)F
101.3 kPa, x2 = 0
Conditions	viscosity [mPa·s]
293.15 K	0.361
298.15 K	0.346
303.15 K	0.332
308.15 K	0.32
313.15 K	0.309
318.15 K	0.298
323.15 K	0.288
328.15 K	0.279
333.15 K	0.271

CCCC[P+](C)(CCCC)CCCC.COS(=O)(=O)[O-] + CN1CCCC1=O
101 kPa
Conditions	viscosity [mPa·s]
293.15 K, x1 = 0.8086	530
298.15 K, x1 = 0.056	7.6
298.15 K, x1 = 0.3764	80
298.15 K, x1 = 0.7129	290
298.15 K, x1 = 0.8086	370
298.15 K, x1 = 1	520
303.15 K, x1 = 0.0914	4.9
303.15 K, x1 = 0.1773	10.8
303.15 K, x1 = 0.2318	15.5
303.15 K, x1 = 0.2971	25
303.15 K, x1 = 0.8086	260
303.15 K, x1 = 0.9022	330
303.15 K, x1 = 0.9468	350
313.15 K, x1 = 0.056	1
313.15 K, x1 = 0.1773	4.5
318.15 K, x1 = 0.2318	7.1
318.15 K, x1 = 0.7129	73
318.15 K, x1 = 0.8086	112
323.15 K, x1 = 0.0914	2.5
323.15 K, x1 = 0.6014	30

CCCC[P+](C)(CCCC)CCCC.COS(=O)(=O)[O-] + CN(C)C=O
100 kPa
Conditions	viscosity [mPa·s]
293.15 K, x1 = 0.3321	27.12
293.15 K, x1 = 0.4272	67.1
293.15 K, x1 = 0.9362	625
298.15 K, x1 = 1	521
303.15 K, x1 = 0.0765	2.239
303.15 K, x1 = 0.8837	287
308.15 K, x1 = 0.6717	99.2
313.15 K, x1 = 0.0474	1.983
313.15 K, x1 = 1	217
318.15 K, x1 = 0.2582	8.21
318.15 K, x1 = 0.3321	12.45
323.15 K, x1 = 0.1508	3.946
323.15 K, x1 = 0.8837	112.5

CCCC[n+]1ccn(C)c1.F[P-](F)(F)(F)(F)F + CN(C)C=O
101 kPa
Conditions	viscosity [mPa·s]
293.15 K, x2 = 0.3999	39.7
303.15 K, x2 = 0	187.6
303.15 K, x2 = 0.7963	2.42
303.15 K, x2 = 0.9399	1.21
308.15 K, x2 = 0.3002	30.91
308.15 K, x2 = 0.6	7.89
308.15 K, x2 = 0.7	4.71
313.15 K, x2 = 0.8543	1.7
318.15 K, x2 = 0	95.8
318.15 K, x2 = 0.2	31.22
318.15 K, x2 = 0.6	6.16
323.15 K, x2 = 0.4909	8.38
323.15 K, x2 = 0.6262	4.46

CCCC[n+]1ccn(C)c1.O=S(=O)([N-]S(=O)(=O)C(F)(F)F)C(F)(F)F + CN(C)c1ccccc1
100 kPa, x2 = 0
Conditions	viscosity [mPa·s]
288.15 K	78.4
293.15 K	61.5
298.15 K	49.1
303.15 K	39.9
308.15 K	33.2
313.15 K	27.7
318.15 K	23.5
323.15 K	20.13
328.15 K	17.39
333.15 K	15.2

CCCC[n+]1cccc(C)c1.O=S(=O)([N-]S(=O)(=O)C(F)(F)F)C(F)(F)F + CO
298.15 K, 101.3 kPa
Conditions	electrical conductivity [S/m]
x2 = 0.1004	0.338
x2 = 0.7793	1.68
x2 = 0.9417	2.04
x2 = 0.9589	1.83

CCCC[n+]1ccn(C)c1.O=S(=O)([N-]S(=O)(=O)C(F)(F)F)C(F)(F)F + CO
296.35 K, 100 kPa, frequency 0.01 MHz
Conditions	electrical conductivity [S/m]
x1 = 0.008978	1.5
x1 = 0.01434	2.51
x1 = 0.02356	3.1
x1 = 0.04259	4.63
x1 = 0.08668	4.31

Conditions	electrical conductivity [S/m]	viscosity [mPa·s]
298 K, 100 kPa, x1 = 0.05	–	1.017
298 K, 100 kPa, x1 = 0.1927	–	3.181
298 K, 100 kPa, x1 = 0.2796	–	5.166
298 K, 100 kPa, x1 = 0.6962	–	23.01
298 K, 100 kPa, x1 = 1	–	49.7
298 K, 101 kPa, x2 = 0.3686	0.596	–
298 K, 101 kPa, x2 = 0.4819	–	13.83
298 K, 101 kPa, x2 = 0.7921	2.43	–
298.15 K, 100 kPa, x2 = 0.0986	–	42.43
298.15 K, 100 kPa, x2 = 0.7056	–	8.01
303.15 K, 100 kPa, x2 = 0	–	40.54
303.15 K, 100 kPa, x2 = 0.0986	–	34.9
303.15 K, 100 kPa, x2 = 0.4004	–	18.48
318.15 K, 100 kPa, x2 = 0.0986	–	20.96
318.15 K, 100 kPa, x2 = 0.295	–	14.8
318.15 K, 100 kPa, x2 = 0.4923	–	9.36
318.15 K, 100 kPa, x2 = 0.7056	–	4.52
323.15 K, 100 kPa, x2 = 0.7056	–	4.24
323.15 K, 100 kPa, x2 = 0.8978	–	1.12
